pIC50: −log10 of the molar value.
Biological target: T1, PI3Kγ (Homo sapiens, UniProt P48736)
T1 construct: HA; made in house; host or cells: Spodoptera frugiperda (Sf9) cells, baculovirus coinfection
Test: PI3Kγ in vitro kinase assay (32P-ATP, PIP2 lipid micelles, filter plate)
Assay type: biochemical
Conditions: purified recombinant p101/p110γ protein with G protein β1/γ2 subunits; 20 μM ATP; 25 μM PIP2; 20 minutes at room temperature
Method: Spodtera frugiperda cells, grown in ESF921 media, were coinfected with baculovirus expressing a glu-tagged p101 and baculovirus expressing an HA-tagged p110γ, at a 3:1 ratio of p101 baculovirus to p110γ baculovirus. Sf9 cells were grown to 1×10^7 total cells/mL in 10 L bioreactors and harvested 48-72 hours post infection. Samples of infected cells were then tested for expression of p101/p110γ PI3 kinase by immunoprecipitation and Western Blot analysis methods (see below). To purify PI3Kγ, 4 volumes of room temperature hypotonic lysis buffer (1 mM MgCl2, 1 mM DTT, 5 mM EGTA, 1 mM Pefabloc, 0.5 μM aprotinin, 5 μM leupeptin, 2 μM pepstatin, 5 μM E64, pH 8) per gram of cell paste, was poured onto frozen cell pellets with stirring, then lysed in a nitrogen “bomb” at 400 psi (599HC […], Parr Instrument Co, Moline, Ill.). NaCl was added to 150 mM, and sodium cholate was added to 1% and mixed for another 45 minutes. The lysates were clarified by centrifugation for 25 minutes at 14,000 rpm. The lysates were then loaded over anti-glu-linked Protein-G Sepaharose beads (Covance Research Products, Richmond, Calif.) using 20 mL resin/50 g cell paste. The column was washed with 15 volumes of wash buffer (1 mM DTT, 0.2 mM EGTA, 1 mM Pefabloc, 0.5 μM aprotinin, 5 μM leupeptin, 2 μM pepstatin, 5 μM E64, 150 mM NaCl, 1% sodium cholate, pH 8). PI3Kγ was eluted with 6 column volumes of wash buffer that contain 100 μg/mL of a peptide that competes for binding of the glu tag. The column fractions with the eluted protein (determined by taking OD280 readings) were collected and dialyzed in 0.2 mM EGTA, 1 mM DTT, 1 mM Pefabloc, 5 μM leupeptin, 0.5% sodium cholate, 150 mM NaCl, and 50% glycerol, pH 8. The fractions were stored at -80° C. until further use. Spodtera frugiperda cells were coinfected with baculovirus expressing a glu-tagged G protein β1 and baculovirus expressing a […], at a 1:1 ratio of glu-tagged G protein β1 baculovirus to G protein β2 baculovirus. Sf9 cells are grown in 10 L bioreactors and harvested 48-72 hours post infection. Samples of infected cells were tested for G protein β1/β2 expression by Western Blot analysis, as described below. Cell lysates were homogenized and loaded onto a column of glu-tagged beads as in Biological Example 1 and competed off the column with a glu peptide and processed as described in Biological Example 1. The inhibitory properties of the compounds in Table 1 were assayed in an in vitro PI3K assay. In a 96-well polypropylene plate, each well was spotted with […] of 50 times the desired final concentration of compound in DMSO. Purified recombinant p101/p110γ protein (0.03 μg; 2.7 nM) and G protein β1/γ2 subunits (0.09 μg; 57.7 nM) for each reaction was combined in the assay buffer (30 mM HEPES, 100 mM NaCl, 1 mM EGTA, and 1 mM DTT). ATP and [γ-^32P-ATP] (0.09 μCi) were added to this mixture so that the final ATP concentration in the reaction was 20 μM. Lipid micelles were formed by sonicating phosphatidylinositol4,5-diphosphate (PIP2), phosphatidylethanolamine (PE), and Na-cholate in the assay buffer for 10 minutes, adding MgCl2 and incubating on ice for 20 minutes, for final concentrations of 25 μM PIP2, 300 μM PE, 0.02% Na-cholate, and 10 mM MgCl2 in the reaction. The reactions were started by adding equal volumes lipid and enzyme mixture in a total volume of 50 μL, allowed to run for 20 minutes at room temperature, and stopped with 100 μL 75 mM H3PO4. The lipid product was transferred to a glass fiber filter plate and washed with 75 mM H3PO4 several times. The presence of radioactive lipid product (PIP3) was measured by adding Wallac Optiphase mix to each well and counting in a Wallac 1450 Trilux plate reader (PerkinElmer Life Sciences Inc., Boston, Mass. 02118). The IC50 for each compound tested is reported in μM in Table 1: […]

T1 sequence (P48736 whole entry, species assumed): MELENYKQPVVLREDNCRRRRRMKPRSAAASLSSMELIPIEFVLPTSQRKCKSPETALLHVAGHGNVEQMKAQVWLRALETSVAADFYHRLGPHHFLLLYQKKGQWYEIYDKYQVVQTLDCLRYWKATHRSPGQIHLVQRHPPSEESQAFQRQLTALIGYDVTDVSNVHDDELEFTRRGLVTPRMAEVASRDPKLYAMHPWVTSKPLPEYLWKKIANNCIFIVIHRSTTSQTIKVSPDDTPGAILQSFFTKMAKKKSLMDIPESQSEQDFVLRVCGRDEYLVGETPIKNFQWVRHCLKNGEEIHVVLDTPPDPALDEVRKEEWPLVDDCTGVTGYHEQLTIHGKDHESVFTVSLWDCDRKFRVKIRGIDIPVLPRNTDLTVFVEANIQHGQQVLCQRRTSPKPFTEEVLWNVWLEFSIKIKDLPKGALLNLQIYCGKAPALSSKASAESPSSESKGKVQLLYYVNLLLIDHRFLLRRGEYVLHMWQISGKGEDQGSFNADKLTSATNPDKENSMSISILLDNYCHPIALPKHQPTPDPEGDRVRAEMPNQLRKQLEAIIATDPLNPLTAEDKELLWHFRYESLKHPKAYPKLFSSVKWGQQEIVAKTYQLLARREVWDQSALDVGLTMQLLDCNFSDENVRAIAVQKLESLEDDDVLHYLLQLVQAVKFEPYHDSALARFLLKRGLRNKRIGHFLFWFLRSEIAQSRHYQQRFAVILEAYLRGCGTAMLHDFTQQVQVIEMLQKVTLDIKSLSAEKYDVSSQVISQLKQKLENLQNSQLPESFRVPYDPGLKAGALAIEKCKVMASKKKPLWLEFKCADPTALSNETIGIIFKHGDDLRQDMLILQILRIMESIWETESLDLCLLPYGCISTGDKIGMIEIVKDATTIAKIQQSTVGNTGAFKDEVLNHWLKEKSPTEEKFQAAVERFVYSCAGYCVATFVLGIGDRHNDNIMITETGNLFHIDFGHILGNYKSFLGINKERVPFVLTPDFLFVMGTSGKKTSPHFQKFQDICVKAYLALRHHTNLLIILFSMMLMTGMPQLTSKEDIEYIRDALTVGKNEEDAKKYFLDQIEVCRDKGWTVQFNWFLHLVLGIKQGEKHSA
T1 sequence (Q8WYR1 whole entry partner, species assumed): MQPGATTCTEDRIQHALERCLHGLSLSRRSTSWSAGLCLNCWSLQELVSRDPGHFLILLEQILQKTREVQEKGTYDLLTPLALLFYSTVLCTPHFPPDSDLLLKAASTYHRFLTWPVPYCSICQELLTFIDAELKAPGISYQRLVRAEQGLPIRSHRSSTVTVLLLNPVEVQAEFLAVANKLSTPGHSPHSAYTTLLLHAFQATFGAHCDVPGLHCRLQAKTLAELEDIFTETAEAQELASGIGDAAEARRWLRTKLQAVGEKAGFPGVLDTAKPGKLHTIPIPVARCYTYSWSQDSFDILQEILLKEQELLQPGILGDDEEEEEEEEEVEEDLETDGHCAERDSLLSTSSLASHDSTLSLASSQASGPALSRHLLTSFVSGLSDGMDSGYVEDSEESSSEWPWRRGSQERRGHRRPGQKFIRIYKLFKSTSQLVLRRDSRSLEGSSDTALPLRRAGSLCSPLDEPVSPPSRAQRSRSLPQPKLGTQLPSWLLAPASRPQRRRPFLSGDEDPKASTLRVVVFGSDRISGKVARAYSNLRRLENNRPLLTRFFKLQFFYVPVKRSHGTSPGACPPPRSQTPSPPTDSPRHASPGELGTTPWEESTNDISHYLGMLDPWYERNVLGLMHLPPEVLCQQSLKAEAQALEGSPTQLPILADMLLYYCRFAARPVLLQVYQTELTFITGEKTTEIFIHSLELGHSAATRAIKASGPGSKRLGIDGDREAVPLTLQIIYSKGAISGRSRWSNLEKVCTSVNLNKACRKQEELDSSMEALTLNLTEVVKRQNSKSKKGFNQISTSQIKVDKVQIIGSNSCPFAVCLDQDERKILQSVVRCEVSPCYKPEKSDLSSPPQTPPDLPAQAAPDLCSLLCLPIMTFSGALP

Structure (SMILES)	pIC50
COc1ccc2sc(C(=O)Nc3nnn[nH]3)c(Sc3ccc4c(c3)OCO4)c2c1 [Example 27, 3-(benzo[1,3]dioxol-5-ylsulfanyl)-5-methoxy-benzo[b]thiophene-2-carboxylic acid(1H-tetrazol-5-yl)-amide]	5.77
COc1cc2sc(C(=O)Nc3nnn[nH]3)c(Sc3ccc(O)cc3)c2cc1OC [Example 28, 3-(4-hydroxy-phenylsulfanyl)-5,6-dimethoxy-benzo[b]thiophene-2-carboxylic acid(1H-tetrazol-5-yl)-amide]	5.73
COc1cc2sc(C(=O)Nc3nnn[nH]3)c(Sc3ccoc3C)c2cc1OC [Example 29, 5,6-dimethoxy-3-(2-methyl-furan-3-ylsulfanyl)-benzo[b]thiophene-2-carboxylic acid(1H-tetrazol-5-yl)-amide]	5.67
COC(=O)Cc1ccc(Sc2c(C(=O)Nc3nnn[nH]3)sc3cc(C)c(OC)cc23)cc1 [Example 31, {4-[5-Methoxy-6-methyl-2-(1H-tetrazol-5-ylcarbamoyl)-benzo[b]thiophen-3-ylsulfanyl]-phenyl}-acetic acid methyl ester]	5.40
COc1cccc(Sc2c(C(=O)Nc3nnn[nH]3)sc3cc(C)c(OC)cc23)c1 [Example 34, 5-Methoxy-3-(3-methoxy-phenylsulfanyl)-6-methyl-benzo[b]thiophene-2-carboxylic acid(1H-tetrazol-5-yl)-amide]	6.68
COc1cc2c(Sc3ccc(C(C)C)cc3)c(C(=O)Nc3nnn[nH]3)sc2cc1C [Example 35, 3-(4-Isopropyl-phenylsulfanyl)-5-methoxy-6-methyl-benzo[b]thiophene-2-carboxylic acid(1H-tetrazol-5-yl)-amide]	6.43
COc1cc2sc(C(=O)Nc3nnn[nH]3)c(Sc3cccc(O)c3)c2cc1OC [Example 36, 3-(3-Hydroxy-phenylsulfanyl)-5,6-dimethoxy-benzo[b]thiophenes-2-carboxylic acid(1H-tetrazol-5-yl)-amide]	5.73
COc1ccc(Sc2c(C(=O)Nc3nnn[nH]3)sc3cc(C)c(OC)cc23)cc1 [Example 37, 5-Methoxy-3-(4-methoxy-phenylsulfanyl)-6-methyl-benzo[b]thiophene-2-carboxylic acid(1H-tetrazol-5-yl)-amide]	6.09
COc1cc2sc(C(=O)Nc3nnn[nH]3)c(Sc3cccc(O)c3)c2cc1C [Example 39, 3-(3-Hydroxy-phenylsulfanyl)-6-methoxy-5-methyl-benzo[b]thiophene-2-carboxylic acid(1H-tetrazol-5-yl)-amide]	6.01
COC(=O)Cc1ccc(Sc2c(C(=O)Nc3nnn[nH]3)sc3cc(OC)c(C)cc23)cc1 [Example 40, {4-[6-Methoxy-5-methyl-2-(1H-tetrazol-5-ylcarbamoyl)-benzo[b]thiophen-3-ylsulfanyl]-phenyl}-acetic acid methyl ester]	5.90
COc1cc2sc(C(=O)Nc3nnn[nH]3)c(SC(c3ccccc3)C(C)N(C)C(C)=O)c2cc1C (centres unmarked) [Example 44, 3-[2-(Acetyl-methyl-amino)-1-phenyl-propylsulfanyl]-6-methoxy-5-methyl-benzo[b]thiophene-2-carboxylic acid(1H-tetrazol-5-yl)-amide]	5.56
COc1cc2sc(C(=O)Nc3nnn[nH]3)c(Sc3cccc(Cl)c3)c2cc1C [Example 45, 3-(3-Chloro-phenylsulfanyl)-6-methoxy-5-methyl-benzo[b]thiophene-2-carboxylic acid(1H-tetrazol-5-yl)-amide]	6.33
COc1cccc(Sc2c(C(=O)Nc3nnn[nH]3)sc3cc(OC)c(C)cc23)c1 [Example 46, 6-Methoxy-3-(3-methoxy-phenylsulfanyl)-5-methyl-benzo[b]thiophene-2-carboxylic acid(1H-tetrazol-5-yl)-amide]	6.22
COc1cc2c(Sc3ccc(N(C)C)cc3)c(C(=O)Nc3nnn[nH]3)sc2cc1C [Example 53, 3-(4-Dimethylamino-phenylsulfanyl)-5-methoxy-6-methyl-benzo[b]thiophene-2-carboxylic acid(1H-tetrazol-5-yl)-amide]	6.41
COc1cc2c(Sc3ccc(CC(=O)O)cc3)c(C(=O)Nc3nnn[nH]3)sc2cc1C [Example 56, {4-[5-Methoxy-6-methyl-2-(1H-tetrazol-5-ylcarbamoyl)-benzo[b]thiophen-3-ylsulfanyl]-phenyl}-acetic acid]	6.94

More lines, now with the values ahead:

pIC50	Structure (SMILES)
6.20	COc1cc2c(Sc3ccc(O)cc3)c(C(=O)Nc3nnn[nH]3)sc2cc1C [Example 30, 3-(4-Hydroxy-phenylsulfanyl)-5-methoxy-6-methyl-benzo[b]thiophene-2-carboxylic acid(1H-tetrazol-5-yl)-amide]
5.34	COC(=O)CCc1ccc(Sc2c(C(=O)Nc3nnn[nH]3)sc3cc(C)c(OC)cc23)cc1 [Example 32, 3-{4-[5-Methoxy-6-methyl-2-(1H-tetrazol-5-ylcarbamoyl)-benzo[b]thiophen-3-ylsulfanyl]-phenyl}-propionic acid methyl ester]
6.05	COc1cc2sc(C(=O)Nc3nnn[nH]3)c(Sc3ccc(O)cc3)c2cc1C [Example 38, 3-(4-Hydroxy-phenylsulfanyl)-6-methoxy-5-methyl-benzo[b]thiophene-2-carboxylic acid(1H-tetrazol-5-yl)-amide]
5.39	COC(=O)CCc1ccc(Sc2c(C(=O)Nc3nnn[nH]3)sc3cc(OC)c(C)cc23)cc1 [Example 41, 3-{4-[6-Methoxy-5-methyl-2-(1H-tetrazol-5-ylcarbamoyl)-benzo[b]thiophen-3-ylsulfanyl]-phenyl}-propionic acid methyl ester]
5.66	COc1cc2sc(C(=O)Nc3nnn[nH]3)c(Sc3cccc(C(F)(F)F)c3)c2cc1C [Example 42, 6-Methoxy-5-methyl-3-(3-trifluoromethyl-phenylsulfanyl)-benzo[b]thiophene-2-carboxylic acid(1H-tetrazol-5-yl)-amide]
5.50	COc1cc2sc(C(=O)Nc3nnn[nH]3)c(Sc3ccc(C(C)C)cc3)c2cc1C [Example 47, 3-(4-Isopropyl-phenylsulfanyl)-6-methoxy-5-methyl-benzo[b]thiophene-2-carboxylic acid(1H-tetrazol-5-yl)-amide]
5.89	COC(=O)Cc1ccc(Sc2c(C(=O)Nc3nnn[nH]3)sc3cc(OC)c(OC)cc23)cc1 [Example 49, {4-[5,6-Dimethoxy-2-(1H-tetrazol-5-ylcarbamoyl)-benzo[b]thiophen-3-ylsulfanyl]-phenyl}-acetic acid methyl ester]
5.47	COc1cc2sc(C(=O)Nc3nnn[nH]3)c(Sc3cccc(C(F)(F)F)c3)c2cc1OC [Example 50, 5,6-Dimethoxy-3-(3-trifluoromethyl-phenylsulfanyl)-benzo[b]thiophene-2-carboxylic acid(1H-tetrazol-5-yl)-amide]
6.36	COc1cccc(Sc2c(C(=O)Nc3nnn[nH]3)sc3cc(OC)c(OC)cc23)c1 [Example 51, 5,6-Dimethoxy-3-(3-methoxy-phenylsulfanyl)-benzo[b]thiophene-2-carboxylic acid(1H-tetrazol-5-yl)-amide]
7.30	COc1cc2c(SCCc3ccccc3)c(C(=O)Nc3nnn[nH]3)sc2cc1C [Example 54]
6.58	COc1cc2c(Sc3ccc(C(=O)O)cc3)c(C(=O)Nc3nnn[nH]3)sc2cc1C [Example 55, 4-[5-Methoxy-6-methyl-2-(1H-tetrazol-5-ylcarbamoyl)-benzo[b]thiophen-3-ylsulfanyl]-benzoic acid]
